In US10604585B2, “Modulation of PTPRA to treat arthritis” (La Jolla Institute for Allergy & Immunology, priority 2014, dated 2020):

Columns and labels:
[1] = system: RA FLS; conditions: reference (40); cited from earlier work
[2] = system: RA FLS; test: RA FLS induction of gene expression in response to TNF and IL-1β (qPCR, ELISA); format: cell-based, human; conditions: for TNF- and IL-1-induced production of CXCL10 / TNF- and IL-1-induced production of IL6 / TNF- and IL-1-induced production of MMP13: 50 ng/ml TNFα or 2 ng/ml IL-1β with inhibitor for 24 hr
Experimental: FLS were obtained from the UCSD CTRI Biorepository. Each line was previously obtained from discarded synovial tissue of a different patient with RA at the time of synovectomy, as described previously (21). The diagnosis of RA conformed to American College of Rheumatology 1987 revised criteria(22). FLS were cultured in DMEM (Mediatech, Manassas, Va.) with 10% fetal bovine serum (FBS, Omega Scientific, Tarzana, Calif.), 2 mM L-glutamine, […] gentamicin, 100 units/ml of penicillin and […] streptomycin (Life Technologies, Carlsbad, Calif.) at 37° C. in a humidified 5% CO2 atmosphere. For all experiments, FLS were used between passages 4-10, and cells were synchronized in 0.1% FBS (serum-starvation media) for 48 hours prior to analysis or functional assays.
RNA was extracted using RNeasy Kits (Qiagen, Valencia, Calif.) or Trizol (Life Technologies). For lysis of FLS, adherent cells were first washed in PBS and then lysed in the culture plate. cDNA was synthesized using the SuperScript® III First-Strand Synthesis SuperMix (Life Technologies). qPCR was performed using a Roche Lightcycler 480 (Indianapolis, Ind.), with primer assays from SABiosciences/Qiagen. Reactions were measured in triplicate and data was normalized to the expression levels of the house-keeping gene glyceraldehyde 3-phosphate dehydrogenase (GAPDH) or RNA Polymerase II (RPII) (23).
(§1) FLS were treated with 2.5 uM PMO (Gene Tools, Philomath, OR) for 7 days. PMO was replaced in fresh culture medium after 3 days and in serum-starvation medium after 5 days.
Secreted human IL-6 and chemokine (C-X-C motif) ligand 10 (CXCL10) were measured using ELISAs from Biolegend (San Diego, Calif.).

[3] = system: RA FLS; test: Death of RA FLS on treatment with FAK inhibitor; format: cell-based, human; conditions: at the concentrations used in these experiments
[4] = system: RA FLS; test: Western blotting of RA FLS lysates (SRC, FAK, MAPK, AKT, NF-κB signaling); format: cell-based, human; conditions: 10 μM inhibitor vs DMSO
[5] = system: RA FLS; test: as above; format: cell-based, human
Experimental: as §1
Adherent cells were washed in PBS and then lysed in the culture plate in RIPA buffer (25 mM Tris-HCl pH 7.6, 150 mM NaCl, 1% NP-40, 1% sodium deoxycholate, 0.1% SDS) containing 1 mM phenylmethanesulfonyl fluoride, 10 ng/ml aprotinin, 10 μg/ml leupeptin, 10 μg/ml soybean trypsin inhibitor, 10 mM sodium orthovanadate, 5 mM sodium fluoride and 2 mM sodium pyrophosphate. Protein concentration of cell lysates was determined using the Pierce BCA Protein Assay Kit (Thermo Scientific, Rockford, Ill.).

[6] = system: RA FLS; test: Survival and apoptosis assay (Annexin V / PI, FACS); format: cell-based, human; conditions: sera-starvation media or in the presence of PDGF (50 ng/ml, 24 hr); FIG. 2C
Experimental: as §1
Following treatment with PMO, RA FLS were washed and incubated for an additional 24 hoursr in serum-starvation media. Adherent and non-adherent cells were collected and stained with Annexin V-Alexa Fluor® 647 and propidium iodide (PI) according to the manufacturer's instructions (Biolegend, San Diego, Calif.). Cell fluorescence was assessed by FACS using a BD LSR-II (BD Biosciences), and counts and percentages of live (Annexin V−PI−), early apoptotic (Annexin V+PI−), or late apoptotic/necrotic (Annexin V+PI+) cells were obtained. Data was analyzed for statistical significance using the Chi-square test for independence.

[7] = system: RA FLS; test: Spreading and adhesion assay on fibronectin-coated coverslips; format: cell-based, human; conditions: 5% FBS, FIG. 2D
Experimental: as §1
Following treatment with PMO, equal numbers of live RA FLS were re-suspended in FLS medium containing 5% FBS and allowed to adhere onto coverslips coated with 20 μg/ml fibronectin (FN) at 37° C. for 15, 30 and 60 minutes. Cells were fixed in 4% para-formaldehyde for 5 minutes, permeabilized in 0.2% Triton X-100 for 2 minutes, and stained with 5 U/ml Alexa Fluor® 568 (AF 568)-conjugated phalloidin and 2 μg/ml Hoechst for 20 minutes (Life Technologies). Samples were imaged with an Olympus FV10i Laser Scanning Confocal Microscope (Olympus, Center Valley, Pa.). Using the FV10i acquisition software, each coverslip was separated into four nine-paneled mega-images. Each panel (1024×1024) was acquired with a 10× objective and then stitched together, through a 10% overlap, with the Olympus FluoView 1000 imaging software. Total cell number and cell areas for each panel were calculated using Image Pro Analyzer software (Media Cybernetics, Rockville, Md.).

[8] = RA FLS, RPTPα knockdown with PMO, FIG. 3B, 3C
[9] = basal conditions, PTPRA knockdown
[10] = unstimulated PMO-treated RA FLS, FIG. 3D
[11] = 2.5 μM PMO for 7 d, then 2 ng/ml IL-1β for 24 hr, vs Ctl PMO, FIG. 1D
[12] = 2.5 μM PMO for 7 d, then 50 ng/ml TNF for 24 hr, vs Ctl PMO, FIG. 1D
[13] = RA FLS, 2.5 μM PMO for 7 d, FIG. 1D
[14] = 2.5 μM PTPRA_2 PMO for 7 d, then 50 ng/ml TNF or 2 ng/ml IL-1 for 24 hr, FIGS. 8A-8B

## NC1(c2ccc(-c3nc4ccn5c(=O)[nH]nc5c4cc3-c3ccccc3)cc2)CCC1 [MK2206, reference compound]
[1]
  RA FLS migration and invasiveness: attenuate
[2]; RA FLS, 2 ng/ml IL-1β with inhibitor for 24 hr, vs DMSO, qPCR, FIG. 4A
  IL-1β-induced expression of CXCL10: increased
[2]; RA FLS, vs DMSO, qPCR, FIG. 4A
  TNF- and IL-1-induced production of CXCL10: did not dampen
  TNF- and IL-1-induced production of IL6: increased
  TNF- and IL-1-induced production of MMP13: did not dampen

## CS(=O)(=O)c1cccc(CNc2nc(Nc3ccc4c(c3)CCC(=O)N4)ncc2C(F)(F)F)c1 [PF573228]
[3]
  death of RA FLS: does not cause death
[4]; 50 ng/ml TNF or 2 ng/ml IL-1β for 30 min
  p38-T180/Y185 phosphorylation: no effect
[4]; 50 ng/ml TNF or 2 ng/ml IL-1β for 30 min, FIG. 4B
  TNF- and IL-1β-induced phosphorylation of JNK-T183/Y185: impaired
[4]; FIG. 4B
  FAK-Y397 phosphorylation: impaired
[2]; RA FLS, vs DMSO, qPCR, FIG. 4A
  TNF- and IL-1-induced production of CXCL10: significantly decreased
  TNF- and IL-1-induced production of IL6: significantly decreased
  TNF- and IL-1-induced production of MMP13: significantly decreased

## PTPRA PMO: cell-permeable antisense morpholino oligo (PMO) targeting PTPRA; probably SEQ ID NO:4, 5′ GACATTAAGGAATGCCTTACCCACA 3′ (assignment not stated) (morpholino, cell-permeable, chemistry not fully specified)
[5]; RA FLS, PMO treatment, FIGS. 3B-3C
  TNF- and IL-1β stimulated phosphorylation of AKT-S473: reduced
[5]; [8]
  TNF- and IL-1β-stimulated phosphorylation of JNK (T183/Y185): impaired
  TNF- and IL-1β-stimulated phosphorylation of p38-T180/Y182: impaired
[5]; RA FLS, RPTPα knockdown with PMO, FIG. 3C
  phosphorylation of FAK-Y397: reduced
[5]; [9]
  proteolytic processing of NFκB subunit p100 (ratio of p52:p100): unaffected
  proteolytic processing of NFκB subunit p105 (ratio of p50:p105): unaffected
[5]; resting RA FLS, RPTPα knockdown with PMO, FIG. 3A
  phosphorylation of SRC-Y527: increased
[5]; stimulation with TNF or IL-1β, FIG. 3B, 3C
  levels of IκBα following 10 minutes post-stimulation, Ctl vs PTPRA PMO-treated cells: similar
[5]; [10]
  basal phosphorylation of IκB kinase (IKK)-αβ on Ser176/180: non-significant trend towards decreased
  basal phosphorylation of NFκB subunit p65 on Ser536: non-significant trend towards decreased
[5]; unstimulated, PMO treatment
  levels of IκBα protein in resting RA FLS: modest decrease
[6]
  apoptosis compared to control-treated cells: significantly increased
[7]; cell area after 15, 30 and 60 min
  spreading on fibronectin-coated coverslips: impaired spreading
[7]; cells per field after 15 min
  adherence of live cells to fibronectin-coated coverslips: less adherent
[2]; [11]
  RA FLS production of CXCL10 in response to IL-1β: significantly reduced
  RA FLS production of IL6 in response to IL-1β: significantly reduced
  RA FLS production of MMP3 in response to IL-1β: significantly reduced
  RA FLS production of MMP13 in response to IL-1β: significantly reduced
[2]; [12]
  RA FLS production of CXCL10 in response to TNF: significantly reduced
  RA FLS production of MMP13 in response to TNF: significantly reduced
[2]; [13]
  expression of IL-1β receptor (IL1R): increased
  expression of TNF receptor (TNFRSF1A): no effect

## second PTPRA-targeted PMO: second PTPRA-targeted PMO of a different sequence; probably SEQ ID NO:5, 5′ GTGTCTCATCTGAAATCAAGACAAC 3′ (assignment not stated) (morpholino, cell-permeable, chemistry not fully specified)
[2]; [14]
  effect on CXCL10 (reduced production, protein in supernatants by ELISA): confirmed
  effect on IL-6 (reduced production, protein in supernatants by ELISA): confirmed
